The values that follow come from PubChem BioAssay AID248 (DTP/NCI, 2004).

SMILES strings stand for the structures. Where “and” joins values, the source holds several entries; their conditions need not be identical. Identical values can stand only once. Inconclusive results and toxic doses are left out.

This experiment deals with L1210 leukemia ip in BDF1 mice, survival T/C. As to the kind of experiment: NCI In Vivo Anticancer Drug Screen. Data for tumor model L1210 Leukemia (intraperitoneal) in B6D2F1 (BDF1) mice. The settings on record: endpoint: mean survival time, higher = longer survival. The procedure, abridged: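 Antitumor effect is assessed in tumor-bearing animals. Survival in the compound arm is compared with a vehicle-dosed control arm and expressed as their quotient.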

The mark [1] stands for this setting: dose: 300.0 mg/kg/injection, schedule: Q01DX001 (ip), vehicle: saline.
[2] abbreviates: dose: 200.0 mg/kg/injection, schedule: Q01DX001 (ip), vehicle: saline with Tween-80.
Where [3] appears, read: dose: 100.0 mg/kg/injection, schedule: Q04DX003 (ip), vehicle: saline.
Setting [4] is: dose: 200.0 mg/kg/injection, schedule: Q04DX003 (ip), vehicle: saline.
Setting [5] is: dose: 400.0 mg/kg/injection, schedule: Q04DX003 (ip), vehicle: saline.
[6] abbreviates: dose: 100.0 mg/kg/injection, schedule: Q01DX009 (ip), vehicle: Klucel (hydroxypropylcellulose) (HPC).
Setting [7] is: dose: 200.0 mg/kg/injection, schedule: Q01DX009 (ip), vehicle: Klucel (hydroxypropylcellulose) (HPC).
Setting [8] is: dose: 400.0 mg/kg/injection, schedule: Q01DX009 (ip), vehicle: Klucel (hydroxypropylcellulose) (HPC).
Where [9] appears, read: dose: 100.0 mg/kg/injection, schedule: Q01DX009 (ip), vehicle: saline with Tween-80.
[10] abbreviates: dose: 400.0 mg/kg/injection, schedule: Q01DX009 (ip), vehicle: saline with Tween-80.

As to `CCCCCCCC(=O)Oc1ccc(C)cc1`, the T/C reads like this: (dose: 100.0 mg/kg/injection, schedule: Q01DX Z (ip), vehicle: carboxymethylcellulose (CMC)) 103 % of control; (dose: 150.0 mg/kg/injection, schedule: Q01DX Z (ip), vehicle: carboxymethylcellulose (CMC)) 106 % of control; (dose: 225.0 mg/kg/injection, schedule: Q01DX Z (ip), vehicle: carboxymethylcellulose (CMC)) 97 % of control.
As for `NC(CS(N)(=O)=O)C(=O)O` (configuration not stated), the T/C reads like this: (dose: 75.0 mg/kg/injection, schedule: Q01DX001 (ip), vehicle: saline) 97 % of control; (dose: 150.0 mg/kg/injection, schedule: Q01DX001 (ip), vehicle: saline) 103 % of control; under setting [1], 102 % of control.
Take `C/C(Cl)=C/C(=O)O`: the T/C by setting is: (dose: 25.0 mg/kg/injection, schedule: Q04DX002 (ip), vehicle: saline) 106 % of control; (dose: 50.0 mg/kg/injection, schedule: Q04DX002 (ip), vehicle: saline) 92 % of control; (dose: 100.0 mg/kg/injection, schedule: Q01DX001 (ip), vehicle: saline with Tween-80) 102 % of control; (dose: 100.0 mg/kg/injection, schedule: Q04DX002 (ip), vehicle: saline) 92 % of control; under setting [2], 105 % of control; (dose: 200.0 mg/kg/injection, schedule: Q04DX002 (ip), vehicle: saline) 98 % of control and 102 % of control. Further, the T/C (dose: 400.0 mg/kg/injection, schedule: Q01DX001 (ip), vehicle: saline with Tween-80) was 96 % of control.
`C1=CC2c3ccccc3C1c1ccccc12`: the T/C was 101 % of control (dose: 100.0 mg/kg/injection, schedule: Q01DX009 (sc), vehicle: olive oil, sesame oil, peanut oil); 102 % of control (dose: 100.0 mg/kg/injection, schedule: Q04DX003 (sc), vehicle: olive oil, sesame oil, peanut oil); 103 % of control (dose: 200.0 mg/kg/injection, schedule: Q01DX009 (sc), vehicle: olive oil, sesame oil, peanut oil); 95 % of control (dose: 200.0 mg/kg/injection, schedule: Q04DX003 (sc), vehicle: olive oil, sesame oil, peanut oil); 102 % of control (dose: 400.0 mg/kg/injection, schedule: Q01DX009 (sc), vehicle: olive oil, sesame oil, peanut oil); 93 % of control (dose: 400.0 mg/kg/injection, schedule: Q04DX003 (sc), vehicle: olive oil, sesame oil, peanut oil).
With `BrC12CCC(CC1)C1CCC2CC1`, the T/C is 90 % of control (dose: 100.0 mg/kg/injection, schedule: Q01DX009 (ip), vehicle: saline); 96 % of control under setting [3]; 87 % of control (dose: 200.0 mg/kg/injection, schedule: Q01DX009 (ip), vehicle: saline); 97 % of control under setting [4]; 88 % of control (dose: 400.0 mg/kg/injection, schedule: Q01DX009 (ip), vehicle: saline); 98 % of control under setting [5].
With `CC(Cl)CN(CC(C)Cl)C(=O)Oc1ccc([N+](=O)[O-])cc1` (configuration not stated), the T/C under setting [6] was 98 % of control, the T/C under setting [7] was 94 % of control and the T/C under setting [8] was 98 % of control.
As to `OCn1nnc2ccccc21`, the T/C (dose: 100.0 mg/kg/injection, schedule: Q04DX002 (ip), vehicle: saline with Tween-80) is 103 % of control; the T/C (dose: 200.0 mg/kg/injection, schedule: Q04DX002 (ip), vehicle: saline with Tween-80) was 90 % of control; the T/C (dose: 400.0 mg/kg/injection, schedule: Q04DX002 (ip), vehicle: saline with Tween-80) was 106 % of control.
Regarding `O=C(Cn1ccc(=O)[nH]c1=O)N1CCOCC1`, the T/C by setting is: (dose: 100.0 mg/kg/injection, schedule: Q01DX009 (ip), vehicle: water) 91 % of control; (dose: 100.0 mg/kg/injection, schedule: Q04DX003 (ip), vehicle: water) 100 % of control; (dose: 200.0 mg/kg/injection, schedule: Q01DX009 (ip), vehicle: water) 90 % of control; (dose: 200.0 mg/kg/injection, schedule: Q04DX003 (ip), vehicle: water) 92 % of control; (dose: 400.0 mg/kg/injection, schedule: Q01DX009 (ip), vehicle: water) 104 % of control; (dose: 400.0 mg/kg/injection, schedule: Q04DX003 (ip), vehicle: water) 94 % of control.
As for `CCCCC(C=O)(C=C=C(C)C)CC` (configuration not stated), the T/C reads like this: under setting [9], 89 % of control; (dose: 100.0 mg/kg/injection, schedule: Q04DX003 (ip), vehicle: saline with Tween-80) 92 % of control; (dose: 200.0 mg/kg/injection, schedule: Q01DX009 (ip), vehicle: saline with Tween-80) 91 % of control; (dose: 200.0 mg/kg/injection, schedule: Q04DX003 (ip), vehicle: saline with Tween-80) 93 % of control; under setting [10], 89 % of control; (dose: 400.0 mg/kg/injection, schedule: Q04DX003 (ip), vehicle: saline with Tween-80) 98 % of control.
For `O=C(O)C1C(C2c3ccc(O)cc3Oc3cc(O)ccc32)C2(Cl)C(Cl)=C(Cl)C1(Cl)C2(Cl)Cl` (configuration not stated), the T/C is 100 % of control under setting [3], 93 % of control under setting [4] and 94 % of control under setting [5].
For the compound `CN(N=O)C(=O)NCC1OC(n2cnc3c(N)ncnc32)C(O)C1O` (configuration not stated), the T/C (dose: 9.0 mg/kg/injection, schedule: Q01DX001 (ip), vehicle: saline with Tween-80) is 95 % of control; the T/C (dose: 13.0 mg/kg/injection, schedule: Q01DX001 (ip), vehicle: saline with Tween-80) is 98 % of control; the T/C (dose: 26.0 mg/kg/injection, schedule: Q01DX001 (ip), vehicle: saline with Tween-80) is 96 % of control; the T/C (dose: 40.0 mg/kg/injection, schedule: Q01DX001 (ip), vehicle: saline with Tween-80) was 96 % of control; the T/C (dose: 60.0 mg/kg/injection, schedule: Q01DX001 (ip), vehicle: saline with Tween-80) was 98 % of control; the T/C (dose: 90.0 mg/kg/injection, schedule: Q01DX001 (ip), vehicle: saline with Tween-80) was 103 % of control. Besides, the T/C reads like this: (dose: 133.0 mg/kg/injection, schedule: Q01DX001 (ip), vehicle: saline with Tween-80) 101 % of control; under setting [2], 106 % of control.
With `CCn1c(C)nc2cc(Cl)c(Br)cc21`, the T/C is, setting by setting: under setting [3], 107 % of control; under setting [4], 110 % of control.
`O=C1NC(=O)C2C3C=CC(C12)C1C2C(=O)NC(=O)C2C31` (configuration not stated): the T/C was 102 % of control (dose: 12.5 mg/kg/injection, schedule: Q01DX009 (ip), vehicle: saline with Tween-80); 95 % of control (dose: 25.0 mg/kg/injection, schedule: Q01DX009 (ip), vehicle: saline with Tween-80); 111 % of control (dose: 50.0 mg/kg/injection, schedule: Q01DX009 (ip), vehicle: saline with Tween-80); 178 % of control under setting [9]; 90 % of control under setting [10].
As for `O=CNC(NC=O)c1ccccc1[N+](=O)[O-]`, the T/C is, setting by setting: under setting [6], 101 % of control; (dose: 100.0 mg/kg/injection, schedule: Q04DX003 (ip), vehicle: Klucel (hydroxypropylcellulose) (HPC)) 104 % of control; under setting [7], 98 % of control; (dose: 200.0 mg/kg/injection, schedule: Q04DX003 (ip), vehicle: Klucel (hydroxypropylcellulose) (HPC)) 98 % of control; under setting [8], 97 % of control; (dose: 400.0 mg/kg/injection, schedule: Q04DX003 (ip), vehicle: Klucel (hydroxypropylcellulose) (HPC)) 100 % of control.
Regarding `Nc1cc(Cl)ccc1NCCO`, the T/C runs as follows: (dose: 33.0 mg/kg/injection, schedule: Q01DX009 (ip), vehicle: saline) 101 % of control; (dose: 66.0 mg/kg/injection, schedule: Q01DX009 (ip), vehicle: saline) 86 % of control; (dose: 132.0 mg/kg/injection, schedule: Q01DX001 (ip), vehicle: saline) 97 % of control and 111 % of control; (dose: 132.0 mg/kg/injection, schedule: Q04DX003 (ip), vehicle: acetone) 97 % of control; (dose: 200.0 mg/kg/injection, schedule: Q01DX001 (ip), vehicle: saline) 97 % of control and 105 % of control; under setting [1], 100 % of control and 105 % of control.
Take `COc1cc2c(c(OC)c1OC)-c1ccc(SC)c(=O)cc1C(NC1OC(CO)C(O)C(O)C1O)CC2` (configuration not stated): the T/C (dose: 12.5 mg/kg/injection, schedule: Q01DX005 (ip), vehicle: saline) was 100 % of control; the T/C (dose: 25.0 mg/kg/injection, schedule: Q01DX005 (ip), vehicle: saline) is 100 % of control; the T/C (dose: 50.0 mg/kg/injection, schedule: Q01DX005 (ip), vehicle: saline) is 112 % of control and 119 % of control; the T/C (dose: 100.0 mg/kg/injection, schedule: Q01DX005 (ip), vehicle: saline) is 116 % of control.
